Experimental data taken from the supplement of paper PMC10307832.

Tests used:
Experiment in all cases: relative viability (nuclei count vs DMSO), 5 days (fraction); higher = more cells survive
Afatinib + Trametinib = compound: CN(C)C/C=C/C(=O)Nc1cc2c(Nc3ccc(F)c(Cl)c3)ncnc2cc1O[C@H]1CCOC1 [Afatinib] + CC(=O)Nc1cccc(-n2c(=O)n(C3CC3)c(=O)c3c(Nc4ccc(I)cc4F)n(C)c(=O)c(C)c32)c1 [Trametinib] (partner 0.02 µM)
In short: (§1)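 A single step with final 0.05% Triton X-100, 1% formaldehyde and 1 ug/ml Hoechst fixed the cells and stained nuclei 5 days after treatment. Lung cancer cell lines in 1536-well plates had been treated by pin tool the day after seeding with one drug alone or a fixed anchor-drug dose plus five library-drug doses (not always all listed) in √10 steps, and nuclei were counted on 4× images. Relative viability is the ratio of nuclei in treated wells to nuclei in vehicle wells, taken as the median of duplicate plates.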

Afatinib + Lapatinib = compound: CN(C)C/C=C/C(=O)Nc1cc2c(Nc3ccc(F)c(Cl)c3)ncnc2cc1O[C@H]1CCOC1 [Afatinib] + CS(=O)(=O)CCNCc1ccc(-c2ccc3ncnc(Nc4ccc(OCc5cccc(F)c5)c(Cl)c4)c3c2)o1 [Lapatinib] (partner 2 µM)
In short: as §1

Afatinib + Phenformin = compound: CN(C)C/C=C/C(=O)Nc1cc2c(Nc3ccc(F)c(Cl)c3)ncnc2cc1O[C@H]1CCOC1 [Afatinib] + N=C(N)NC(=N)NCCc1ccccc1 [Phenformin] (partner 250 µM)
In short: as §1

Afatinib + Olaparib = compound: CN(C)C/C=C/C(=O)Nc1cc2c(Nc3ccc(F)c(Cl)c3)ncnc2cc1O[C@H]1CCOC1 [Afatinib] + O=C(c1cc(Cc2n[nH]c(=O)c3ccccc23)ccc1F)N1CCN(C(=O)C2CC2)CC1 [Olaparib] (partner 8 µM)
In short: as §1

Cell Line | relative viability (Afatinib + Trametinib; first compound 0.005 µM) | relative viability (Afatinib + Trametinib; first compound 0.01581 µM) | relative viability (Afatinib + Trametinib; first compound 0.05 µM) | relative viability (Afatinib + Trametinib; first compound 0.1581 µM) | relative viability (Afatinib + Trametinib; first compound 0.5 µM) | relative viability (Afatinib + Lapatinib; first compound 0.005 µM) | relative viability (Afatinib + Lapatinib; first compound 0.01581 µM) | relative viability (Afatinib + Lapatinib; first compound 0.05 µM) | relative viability (Afatinib + Lapatinib; first compound 0.1581 µM) | relative viability (Afatinib + Lapatinib; first compound 0.5 µM) | relative viability (Afatinib + Phenformin; first compound 0.005 µM) | relative viability (Afatinib + Phenformin; first compound 0.01581 µM) | relative viability (Afatinib + Phenformin; first compound 0.05 µM) | relative viability (Afatinib + Phenformin; first compound 0.1581 µM) | relative viability (Afatinib + Phenformin; first compound 0.5 µM) | relative viability (Afatinib + Olaparib; first compound 0.005 µM) | relative viability (Afatinib + Olaparib; first compound 0.01581 µM) | relative viability (Afatinib + Olaparib; first compound 0.05 µM) | relative viability (Afatinib + Olaparib; first compound 0.1581 µM) | relative viability (Afatinib + Olaparib; first compound 0.5 µM)
COR-L 105 | 0.38 | 0.315 | 0.379 | 0.34 | 0.352 | 0.311 | 0.385 | 0.344 | 0.31 | 0.343 | 0.294 | 0.22 | 0.211 | 0.203 | 0.249 | 0.737 | 0.483 | 0.422 | 0.331 | 0.34
LK-2 | 0.908 | 0.846 | 0.633 | 0.78 | 0.73 | 1.13 | 0.787 | 0.846 | 0.851 | 1.01 | 0.471 | 0.306 | 0.422 | 0.488 | 0.574 | 0.705 | 0.591 | 0.725 | 0.766 | 0.79
NCI-H727 | 0.391 | 0.359 | 0.393 | 0.299 | 0.34 | 0.892 | 0.861 | 0.894 | 0.639 | 0.948 | 0.493 | – | 0.299 | 0.613 | 0.442 | 0.827 | 0.824 | 0.606 | 0.572 | 0.815
RERF-LC-KJ | 0.852 | 0.806 | 0.723 | 0.684 | 0.674 | 0.83 | 0.919 | 0.849 | 0.834 | 0.83 | 0.423 | 0.393 | 0.342 | 0.315 | 0.335 | 0.851 | 0.86 | 0.906 | 0.865 | 0.828
NCI-H2023 | 0.527 | 0.505 | 0.489 | 0.398 | 0.393 | 0.744 | 0.853 | 0.896 | 0.809 | 0.964 | 0.436 | 0.382 | 0.412 | 0.291 | 0.375 | 0.514 | 0.444 | 0.489 | 0.464 | 0.481
NCI-H322M | 0.492 | 0.463 | 0.458 | 0.43 | 0.442 | 0.554 | 0.547 | 0.499 | 0.57 | 0.465 | 0.636 | 0.433 | 0.535 | 0.463 | 0.446 | 0.743 | 0.573 | 0.559 | 0.559 | 0.531
NCI-H1666 | 0.673 | 0.648 | 0.776 | 0.815 | 0.791 | 0.592 | 0.621 | 0.618 | – | 0.834 | 0.572 | 0.553 | 0.607 | 0.555 | 0.567 | 0.78 | 0.792 | 0.75 | 0.712 | 0.681
NCI-H1648 | 0.423 | 0.462 | 0.316 | 0.287 | 0.246 | – | – | – | – | – | – | – | – | – | – | 0.978 | 0.617 | 0.391 | 0.323 | 0.469
NCI-H2087 | 0.223 | 0.147 | 0.183 | 0.117 | 0.15 | 0.973 | 1.07 | 1.09 | 0.946 | 0.929 | 0.454 | 0.475 | 0.446 | 0.446 | 0.373 | 0.511 | 0.669 | 0.609 | 0.525 | 0.593
